Data reported in patent US9568449B2, “Dielectric spectroscopy methods and apparatus” (Bend Research, Inc., priority 2012, dated 2017).

How the values were obtained:
[1] = tested on: first population of cells; assay: Viability of a cell population after apoptosis induction with staurosporine; format: cell-based; details: 1 μM staurosporine added at day 14 of cell growth; compared with untreated control population; FIG. 19B
Experimental: FIG. 19A is a chart 1900 that illustrates the viability of cells (along the y-axis) in two different cell populations over a period of time (along the x-axis) in an example experiment corresponding to the method of FIG. 18. As shown, a first line 1910 indicates the viability of a first population of cells, which has apoptosis induced using addition of a staurosporine agent. In this case, a 1 μM concentration of staurosporine was used. A second line 1915 indicates the viability of a second population of cells, which is a control population that is not induced using a staurosporine agent.
At a designated time period, apoptosis is induced in the first population of cells by adding an apoptosis inducing agent to the environment.
FIG. 19B is a chart 1930 that illustrates viable cell density (VCD) (left y-axis) and cell viability percentage (right y-axis) plotted over time (x-axis) for the first and second measurements of the first and second populations of cells received at process block 1810 and 1820.

[2] = tested on: first population of cells; assay: Dielectric spectroscopy (normalized capacitance versus frequency) of an apoptosis-induced cell population; format: cell-based; details: from time of staurosporine addition (day 14) to 60 hours after addition; compared with slight drift in control; FIG. 19D
Text: At process block 1810, data representing a number of measurements of an electrical property of a first population of cells are received. The measurements can be obtained by applying a frequency-varying signal (e.g., a sine wave having a frequency that is varied across a selected frequency range, or at two or more selected frequencies) to the population of cells while measuring an electrical property such as permittivity or capacitance. A number of selected frequencies can be used, for example, frequencies between 50 kHz and 10 MHz. The measured permittivity of the population of cells will vary depending on the frequency of the applied signal used to measure permittivity. For example, the permittivity can range from a high measurement of 4×10^−9 Farads per meter (F/m) at a low frequency of 50 kHz to a low measurement of 1×10^−11 F/m at a high frequency of 10 MHz. […] The cells can be mammalian cells (e.g. from the CHO or NS0 cell lines) suspended in a nutrient solution.
At process block 1830, the first set of measurements for the first population of cells and the second set of measurements for the second population of cells are compared.
The chart 1950 of FIG. 19D illustrates the first set of measurements obtained from the first population of cells that has an apoptosis-inducing agent added at day 14 of cell growth.

SMILES: CN[C@@H]1C[C@H]2O[C@@](C)([C@@H]1OC)n1c3ccccc3c3c4c(c5c6ccccc6n2c5c31)C(=O)NC4 [staurosporine]
- cell viability percentage [1]: declining
- viable cell density (VCD) [1]: declining
- shift of normalized capacitance versus frequency curve [2]: more substantial drift to the right
